Measurements reported in patent US20110136897A1, “TOLL-LIKE RECEPTOR 9 AGONISTS FOR THE TREATMENT OF ANXIETY-RELATED DISORDERS AND INFLAMMATORY DISORDERS” (YISSUM RESEARCH DEVELOPMENT COMPANY OF THE HEBREW …, priority 2008, published 2011).
Entries after “also recorded” stand apart in the source; their conditions may differ. In the oligonucleotide strings, read from the 5' end, every base follows the letter of its sugar. An asterisk marks phosphorothioate; unmarked linkages are phosphodiester. Other units and linkages are bracketed, terminal groups are in braces. A string of capitals states the bases alone. d = 2'-deoxy (DNA)

Assays:
[1] = system: FVB/N mice; test: Predator (cat) odor stress paradigm, elevated plus maze (EPM) and acoustic startle response (ASR) one week post-exposure; assay type: in vivo, mouse
Experimental: Animals: FVB/N or adult TLR9 −/− mice and strain-matched wild type C57/B6J mice were housed four per cage, with constant temperature (21±1° C.), a 12 hour light/dark cycle, free access to food and water and habituation to the housing conditions by daily handling. Experiments were performed 1 week after arrival in the animal facility.
Behavioral paradigms: Mice were placed for 10 minutes on well-soiled cat litter (in use by the cat for 2 days, sifted for stools). One week after exposure, animals were tested according to Cohen et al. (2005) Biol Psychiatry 58, 640 in the elevated plus maze (EPM) and the acoustic startle response (ASR) paradigms. The EPM is a plus-shaped platform with two opposing open arms and two opposing closed arms (surrounded by 14-cm high opaque walls on three sides). Mice were placed on the central platform and were allowed to explore the maze for 5 min. […]
Startle response was measured using two ventilated startle chambers (SR-LAB System, San Diego Instruments, San Diego, Calif.). Each Plexiglas cylinder rests on a platform inside a sound-attenuated, ventilated chamber. Startle sessions started with a 5-minute acclimatization period to a background of 68 dB white noise, followed by 30 acoustic startle stimuli (110 dB white noise of 40 ms duration with 30 s or 45 s inter-trial interval). Startle amplitude was averaged over all 30 trials, and percent habituation was calculated as the percent difference between the response to the first block of stimuli and to the last one.
(§1) Animals were randomly divided into 5 groups. The following daily treatments initiated immediately before stressor exposure and for a total of four consecutive days: saline, 50 μg/kg ODN1826, 50 μg/kg mEN101, 50 μg/kg μg mEN101 and 500 μg/kg μg ODN2088. Oligonucleotides were delivered in 300 μl 0.9% NaCl solution (Teva, Israel). A control group was exposed to fresh, unused litter. Animals were sacrificed and brains dissected on day 1 2 h after the stressor, on day 4 2 h after the last injection, or on day 7 2 h after the behavioral tests, as noted.
To challenge the hypothesis that TLR9 activation modulates psychological stress reactions, mice were exposed to the predator odor stress paradigm (Cohen, H., Zohar, J., Matar, M. A., Kaplan, Z. & Geva, A. B. (2005) Biol Psychiatry 58, 640-50) and treated them with TLR9 activating or blocking oligonucleotides and with a known stress-suppressing oligonucleotide, mEN101. One week post-exposure, treated mice were tested for avoidance behavior and hyper-arousal in the elevated plus maze (EPM) and acoustic startle response (ASR) tests, respectively (FIG. 1B). […] They also presented greater startle amplitude (F5,103=10.75, p<0.0001; p<0.0001) and decreased startle habituation ([…]; p<0.0001) than control mice (FIG. 1C). The traumatic experience conferred varied impacts in the exposed mice, ranging from drastically maladaptive behavior to generally unmodified response patterns.

[2] = system: RAW264.7 cells; test: Nitric oxide (NO) production, Griess reaction; assay type: cell-based, mouse; details: added with 10 μM mEN101
Experimental: (§2) The mouse macrophage cell line RAW 264.7 (ATCC, Bethesda, Md.) was cultured in Dulbecco's modified Eagle's medium (DMEM) (Biological Industries) supplemented with 10% heat-inactivated fetal bovine serum (Biological Industries, Israel), 100 μg/ml streptomycin, 100 U/ml penicillin (Sigma) and 2 mM 1-glutamine (Biological Industries) at 37° C. in a humidified atmosphere with 5% CO2.
Determination of nitric oxide (NO) production: Nitrite concentration in the medium of cultured cells was measured as an indicator of NO production according to the Griess reaction. 1×10^5 mouse RAW264.7 cells were grown in 0.5 ml medium in 48-wells plate until 80% confluence was obtained. […] (1% sulfanilamide, 0.1% naphthylethylenediamine dihydrochloride, 5% H3PO4). Absorbance was read at 540 nm after 10 min using SPECTRAFluor Plus spectrophotometer (TECAN, UK).
To further characterize the TLR9 activating features of mEN101, mEN101 was applied to RAW264.7 cells (n=4 repeats) for 24 hours and the subsequent production of inflammatory markers was quantified. […] Addition of chloroquine (CQ), a weak base that perturbs endosomal pH and thus disturbs endosomal maturation, as well as the specific TLR9 inhibiting oligonucleotides ODN2088 and ODN TTAGGG (17), all blocked the 10 μM mEN101-driven increases in NO (p<0.015) (FIG. 2A). Thus, both gain and loss of function tests validated the nature of mEN101 as an endosomally active TLR9 activator, albeit a weak one.

[3] = system: hippocampus; test: RT-PCR of anxiety-related hippocampal transcripts, 4 days following stress; assay type: in vivo, mouse
Experimental: as §1
Real-time PCR (RT-PCR): Brains were dissected and tissues stored frozen at −70° C. until use. Hippocampal RNA was extracted using the RNeasy Tissue Mini Kit (Qiagen, Germany). Total RNA was reverse-transcribed (200 ng) using Impromp-II reverse transcriptase (Promega, Madison, Wis.) as instructed. RT-PCR was performed using Power SYBR®Green PCR Master Mix (Applied Biosystems, UK) in a 7900 HT Sequence Detection System (Applied Biosystems, Foster City, Calif.). Quantification was assessed at the logarithmic phase of the PCR reaction. The PCR annealing temperature was 60° C. for all primer pairs. GAPDH was used as a house-keeping gene.
The transcription factor early growth response gene 1 (egr-1) is a central mediator of inflammation and is broadly and constitutively expressed in the central nervous system (CNS). […]

[4] = system: RAW264.7 cells; test: HSP90β mRNA RT-PCR in RAW264.7 cells; assay type: cell-based, mouse; details: with mEN101, 24 hours
Experimental: as §2, with “Cell cultures: The” for “The”, “MD)” for “Bethesda, Md.)”, “Industries, Israel)” for “Industries)”, “streptomycin (Sigma),” for “streptomycin,”
(§3) Real-time PCR (RT-PCR): RAW264.7 cells and spleen were used for RT-PCR. 1×10^6 RAW264.7 cells were grown in 2 ml medium in 6 wells plates until 80% confluence was obtained. Total RNA was extracted using the RNeasy kit (Qiagen, CA, USA). Spleen and brain tissues' RNA was extracted using the RNeasy Tissue Mini Kit (Qiagen, Germany). In all cases, total RNA was reverse-transcribed (200 ng) using Impromp-II reverse transcriptase (Promega, WI, USA) according to manufacturer's instructions. RT-PCR was performed using Power SYBR®Green PCR Master Mix (Applied Biosystems, UK) in a 7900 HT Sequence Detection System (Applied Biosystems, CA). Quantification was assessed at the logarithmic phase of the PCR reaction. The PCR annealing temperature was 60° C. for all primer pairs.

[5] = system: HSP90β mRNA; test: HSP90β mRNA RT-PCR in spleen and frontal lobe of stressed mice; assay type: in vivo, mouse; details: co-administration with mEN101
Experimental: Animals: The stress paradigm consisted of placing the test animals on well-soiled cat litter for 10 minutes (in use by the cat for 2 days, sifted for stools). Tissues were removed 4 days following exposure.
as §3

[6] = system: RAW264.7 cells; test: Nitric oxide (NO) production, Griess reaction; assay type: cell-based, mouse; details: with 1 μM mEN101
[7] = 500 μg/kg co-administered with 50 μg/kg mEN101

“5′-TCCTGGCGGGGAAGT-3′ (dT*dC*dC*dT*dG*dG*dC*dG*dG*dG*dG*dA*dA*dG*dT) [ODN2088]” was tested, and the “EPM score of co-treated mice vs mEN101-treated mice” value [1, 7] was “larger EPM scores”, the “effect on mEN101 anxiolytic effects” value [1, 7] was “abolished much of the mEN101 anxiolytic effects; also recorded: abolished the mEN101-induced amelioration of anxiety-correlated behaviors” and the “habituation to acoustic startle of co-treated mice vs mEN101-treated mice” value [1, 7] was “smaller habituation to acoustic startle”. The “startle response of co-treated mice” value [1, 7] was “remained unchanged”, the “anxiety index (AI): effect on mEN101 ameliorative effect” value ([1]; co-administered with mEN101, compared to mEN101 treated mice) was “abolished mEN101 ameliorative effect” and the “effect on 10 μM mEN101-driven increases in NO” value [2] was “blocked”. For the same substance, the “effect on mEN101-induced modulation of hippocampal genes” value ([3]; co-administration with mEN101) was “abolished the mEN101-induced modulation of these genes”, the “anxiety-related transcripts GABRA2, CHRNA7, ADCYAP1R1, PKCB, CHRBP and CAMK2A (FIGS. 5A-F legend)” value ([3]; co-administration with mEN101, day 4) was “reduced to control levels” and the “effect on mEN101 up-regulation of HSP90β mRNA” value [4] was “abolished”. For the same substance, the “effect on HSP90β mRNA up-regulation” value [5] was “completely abolished; also recorded: blocked” and the “effect on mEN101 effects on NO production (FIG. 2A legend)” value [6] was “abolished”.
